Tested on: récepteurs surrénaliens de l'angiotensine II
Assay: Displacement of radioligand [125I]-SIAII specifically bound to adrenal angiotensin II receptors (rat adrenal homogenate)
Assay type: binding
Conditions: 60 min, 25°C
From the text: L'affinité des produits des exemples pour les récepteurs de l'angiotensine II est évaluée par technique de déplacement d'un radioligand spécifiquement fixé sur les récepteurs surrénaliens de l'angiotensine Il, chez le rat.
Une aliquote d'un homogénat de surrénales de rat incube en présence d'une concentration unique de [^125I]-SIAII (Sar^1, Tyr^4, Ile^8 - angiotensine II), antagoniste des récepteurs de l'angiotensine II, et de deux concentrations d'agents compétiteurs (10^-5 M, 10-^7 M) durant 60 min à 25°C.
La réaction est achevée par ajout de tampon, puis rapide filtration à travers des filtres de papier de verre. La liaison non spécifique est déterminée en présence d'angiotensine Il.
Les résultats sont exprimés, pour les concentrations testées, en pourcentage de déplacement du radioligand spécifiquement fixé sur les récepteurs surrénaliens de l'angiotensine Il.

Row | SMILES | % de déplacement du ligand marqué (competitor 1E-5 M, 10 µM) [%] | % de déplacement du ligand marqué (competitor 1E-7 M, 0.1 µM) [%]
1 | CCCCc1nn(C)c(OCC(=O)OCC)c1Cc1ccc(NC(=O)c2ccccc2C(=O)O)cc1 [Exemple 27, [Méthyl-1 n-butyl-3 ((carboxy-2 benzoyl amino)-4 benzyl)-4 pyrazol-yl-5] oxyacétate d'éthyle] | 92 | 39
2 | CCCc1nn(C)c(OCC(=O)OC)c1Cc1ccc(NC(=O)c2ccccc2C(=O)O)cc1 [Exemple 28, [Méthyl-1 n-propyl-3 ((carboxy-2 benzoyl amino)-4 benzyl)-4 pyrazol-yl-5] oxyacétatede méthyle] | 82 | 34
3 | CCCc1nn(C)c(OCC(=O)OCC)c1Cc1ccc(NC(=O)c2ccccc2C(=O)O)cc1 [Exemple 29, [Méthyl-1 n-propyl-3 ((carboxy-2 benzoyl amino)-4 benzyl)-4 pyrazol-yl-5] oxyacétate d'éthyle] | 80 | 40
4 | CCCc1nn(C)c(OCC(=O)OCC)c1Cc1ccc(NC(=O)c2c(Cl)ccc(Cl)c2C(=O)O)cc1 [Exemple 30, [Méthyl-1 n-propyl-3 ((carboxy-2 dichloro-3,6-benzoyl amino)-4 benzyl)-4 pyrazol-yl-5] oxyacétate d'éthyle] | 96 | 63
5 | CCCc1nn(C)c(OCC(=O)OC)c1Cc1ccc(NC(=O)c2c(Cl)ccc(Cl)c2C(=O)O)cc1 [Exemple 31, [Méthyl-1 n-propyl-3 ((carboxy-2 dlchloro-3,6-benzoyl amino)-4 benzyl)-4 pyrazol-yl-5] oxyacétatede méthyle] | 93 | 60
6 | CCCc1nn(CC(F)(F)F)c(OCC(=O)OC)c1Cc1ccc(NC(=O)c2c(Cl)ccc(Cl)c2C(=O)O)cc1 [Exemple 32, [(trifluoro-2,2,2 éthyl)-1 n-propyl-3 ((carboxy-2 dichloro-3,6-benzoyl amino)-4 benzyl)-4 pyrazol-yl-5] oxyacétatede méthyle] | 98 | 52
7 | CCCc1nn(CC(F)(F)F)c(OCC(=O)OC)c1Cc1ccc(NC(=O)c2ccccc2C(=O)O)cc1 [Exemple 33, [(trifluoro-2,2,2 éthyl)-1 n-propyl-3 ((carboxy-2 benzoyl amino)-4 benzyl)-4 pyrazol-yl-5] oxyacétatede méthyle] | 94 | 26
8 | CCCc1nn(C)c(OCC(=O)O)c1Cc1ccc(NC(=O)c2ccccc2S(=O)(=O)O)cc1 [Exemple 35, Acide [Méthyl-1 n-propyl-3 [(sulfo-2 benzoyl amino)-4 benzyl]-4 pyrazol-yl-5] oxy acétique] | 85 | 48
9 | CCCCc1nn(C)c(O)c1Cc1ccc(-c2ccccc2C(=O)O)cc1 [Exemple 36, Acide [Méthyl-1 n-butyl-3 hydroxy-5 pyrazol-yl-4] méthyl-4' biphényl-2 carboxylique] | 62 | 10
10 | CCCCc1nn(C)c(OCC(=O)O)c1Cc1ccc(-c2ccccc2C(=O)O)cc1 [Exemple 37, Acide [Méthyl-1 n-butyl-3 (carboxy-2' biphényl-yl-4)méthyl-4 pyrazol-yl-5] oxyacétique] | 58 | 9
11 | CCCc1nn(C)c(OC(=O)N(C)C)c1Cc1ccc(NC(=O)c2ccccc2S(=O)(=O)O)cc1 [Exemple 54, Acide [[Méthyl-1 n-propyl-3 (N,N-diméthyl carbamoyl)oxy-5 pyrazol-yl-4]méthylphényl-yl-4] aminocarbonyl-2 benzène sulfonique] | 77 | 62
12 | CCCc1nn(C)c(OC(=O)N(CC)CC)c1Cc1ccc(NC(=O)c2ccccc2S(=O)(=O)O)cc1 [Exemple 57, Acide [[Méthyl-1 n-Propyl-3 (N,N-diéthyl carbamoyl)oxy-5 pyrazol-yl-4]méthylphényl-yl-4] amino carbonyl-2 benzène sulfonique] | 80 | 60
13 | CCCc1nn(CC(F)(F)F)c(OC(=O)N(C)C)c1Cc1ccc(NC(=O)c2ccccc2S(=O)(=O)O)cc1 [Exemple 60, Acide [[(trifluoro-2,2,2 éthyl)-1 n-Propyl-3 (N,N-diméthyl carbamoyl)oxy-5 pyrazol-yl-4]méthylphényl-yl-4] amino carbonyl-2 benzène sulfonique] | 84 | 49
14 | CCCCc1nn(CC(F)(F)F)c(OC(=O)N(C)C)c1Cc1ccc(-c2ccccc2-c2nn[nH]n2)cc1 [Exemple 80, (Trifluoro-2,2,2 éthyl)-1 n-Butyl-3 [(tétrazolyl-5)-2'biphényl-yl-4] méthyl-4 (N,N-diméthyl carbamoyl) oxy-5 pyrazole] | 69 | 48
15 | CCCCc1nn(C)c(OC(=O)N(C)C)c1Cc1ccc(-c2ccccc2-c2nn[nH]n2)cc1 [Exemple 82, Méthyl-1 n-Butyl-3 [(tétrazolyl-5)-2' biphényl-yl-4] méthyl-4 (N,N-diméthyl carbamoyl) oxy-5 pyrazole] | 71 | 47

Other lines, results leading:

Row | % de déplacement du ligand marqué (competitor 1E-5 M, 10 µM) [%] | % de déplacement du ligand marqué (competitor 1E-7 M, 0.1 µM) [%] | SMILES
16 | 83 | 0 | CCCCc1nn(C)c(O)c1Cc1ccc(NC(=O)c2c(Cl)ccc(Cl)c2C(=O)O)cc1 [Exemple 40, Acide [(Méthyl-1 n-butyl-3 hydroxy-5 pyrazolyl-4]méthylphényl-yl-4] amino carbonyl-2 dichloro-3,6 benzoïque]
17 | 85 | 2 | CCCc1nn(CC(=O)OCC)c(O)c1Cc1ccc(NC(=O)c2c(Cl)ccc(Cl)c2C(=O)O)cc1 [Exemple 41, Acide [[éthoxy carbonyl méthyl-1 n-propyl-3 hydroxy-5 pyrazol-yl-4]méthylphényl-yl-4] amino carbonyl-2 dichloro-3,6 benzoïque]
18 | 96 | 9 | CCCc1nn(CC(=O)OCC)c(OCC(=O)OCC)c1Cc1ccc(NC(=O)c2c(Cl)ccc(Cl)c2C(=O)O)cc1 [Exemple 44, Acide [[(Ethoxy carbonyl méthyl)-1 n-propyl-3 (Ethoxy carbonyl méthyloxy)-5 pyrazol-yl-4]méthylphényl-yl-4] amino carbonyl-2 dlchloro-3,6-benzoïque]
19 | 92 | 60 | CCCc1nn(C)c(OCC(=O)OCC)c1Cc1ccc(NC(=O)c2ccccc2S(=O)(=O)O)cc1 [Exemple 45, Acide [[Méthyl-1 n-propyl-3 (Ethoxy carbonyl méthyloxy)-5 pyrazol-yl-4]méthylphényl-yl-4] amino carbonyl-2 benzène sulfonlque.]
20 | 80 | 58 | CCCCc1nn(C)c(OCC(=O)N2CCOCC2)c1Cc1ccc(NC(=O)c2ccccc2S(=O)(=O)O)cc1 [Exemple 48, N-[[Méthyl-1 n-butyl-3 [(sulfo-2 benzoyl amino)-4 benzyl]-4 pyrazol-yl-5]oxyacétyl] morpholine]
21 | 83 | 60 | CCCCc1nn(C)c(OCCO)c1Cc1ccc(NC(=O)c2ccccc2S(=O)(=O)O)cc1 [Exemple 51, Acide [[Méthyl-1 n-butyl-3 (hydroxy-2 éthoxy)-5 pyrazol-yl-4]méthylphényl-yl-4] amino carbonyl-2 benzène sulfonique]
22 | 91 | 64 | CCCc1nn(CC(F)(F)F)c(OCCO)c1Cc1ccc(NC(=O)c2ccccc2S(=O)(=O)O)cc1 [Exemple 63, Acide [[(trffiuoro-2,2,2 éthyl)-1 n-Propyl-3 (hydroxy-2 éthoxy)-5 pyrazol-yl-4]méthyl-4 phényl-yl-4] amino carbonyl-2 benzène sulfonique]
23 | 92 | 63 | CCCc1nn(C)c(OCC(=O)N2CCN(c3ccccc3OC)CC2)c1Cc1ccc(NC(=O)c2ccccc2S(=O)(=O)O)cc1 [Exemple 66, (Méthoxy-2 phényl)-1 [[méthyl-1 n-propyl-3 [(sulfo-2 benzoyl amino)-4 benzyl]-4 pyrazol-yl-5]oxyacétyl]-4 pipérazine]
24 | 67 | 49 | CCCc1nn(C)c(OCC(=O)OCC)c1Cc1ccc(-c2ccccc2-c2nnn[nH]2)cc1 [Exemple 70, [Méthyl-1 n-Propyl-3 [(tétrazolyl-5)-2' biphényl-yl-4]méthyl-4 pyrazol-yl-5] oxy acétate d'éthyle]
25 | 58 | 24 | CCCc1nn(C)c(O)c1Cc1ccc(-c2ccccc2-c2nnn[nH]2)cc1 [Exemple 71, Méthyl-1 n-Propyl-3 hydroxy-5 [(tétrazolyl-5)-2' biphényl-yl-4] méthyl-4 pyrazole]
26 | 66 | 58 | CCCc1nn(CC(F)(F)F)c(O)c1Cc1ccc(-c2ccccc2-c2nnn[nH]2)cc1 [Exemple 74, (Trifluoro-2,2,2 éthyl)-1 n-Propyl-3 hydroxy-5 [(tétrazolyl-5)-2' biphényl-yl-4] méthyl-4 pyrazole]
27 | 73 | 58 | CCCCc1nn(CC(F)(F)F)c(OCC(=O)OCC)c1Cc1ccc(-c2ccccc2-c2nn[nH]n2)cc1 [Exemple 78, [(trifluoro-2,2,2éthyl)-1 n-Butyl-3 [(tétrazolyl-5)-2' biphényl-yl-4]méthyl-4 pyrazol-yl-5] oxy acétate d'éthyle]

Reference: patent EP0449699A2, “Pyrazole derivatives as angiotensin II-receptor antagonists, process for their preparation and pharmaceutical compositions containing them” (LABORATOIRES UPSA, priority 1990, dated 1991)
